Where “and” joins values, the source holds several entries; their conditions need not be identical. Identical values can stand only once. Like-named read-outs stand apart in the source and are kept apart here.
Assays:
Assay type in all cases: cell-based, Acanthamoeba castellanii ATCC 50370
A. castellanii cysts [1] = assay: Cytotoxicity assay on cysts (trypan blue); conditions: Acanthamoeba castellanii
Protocol: (§1) Acanthamoeba castellanii ATCC 50370 trophozoites and cysts were cultured in Peptone Glucose (PG) medium and encystment medium (Chagla A H, Griffiths A J (1974) Microbiology: 85(1): 139-145) respectively at 25° C. Cysts were prepared by incubating trophozoites for 8 days in encystment medium and integrity validated with calcofluor (0.25 μg/ml) assay (Gatti S et al (2010) J. Med. Microbiol.; 59: 1324-1330) or sodium dodecyl sulfate (SDS, 0.5% w/v) disintegration assay (Dudley R et al (2005) Acta Trop.; 9: 100-8) and microscopic observation.
The compounds used in this study all contained alkyl-carbon chains: three APCs [dodecyl-PC (APC12), tetradecyl-PC. (APC14) and hexadecyl-PC (APC16)] (Anatrace) and four QACs [docdecyl-TMAB (QAC12), tetradecyl-TMAB (QAC14), hexadecyl-TMAB (QAC16) and octadecyl-TMAB (QAC18)](Sigma). All were prepared to a stock concentration of 1 mg/ml and diluted as required by the experimental protocol in the cytotoxicity assays. A. castellanii trophozoites and cysts (at 10^5 cells/ml) with or without APCs or QACs (concentrations ranging from […] doubly diluted to 0.04 μg/ml to a final volume of 100 μl) in a 96-well plate were incubated at 25° C. for a duration determined by the experimental protocol.
(§2) For the combined assay, similar concentrations of QAC18 and APC16 were prepared and 18.75 μg/ml and 37.5 μg/ml of QAC12 added (to a final volume of 100 μl) were added to 10^5 cells/mi in a 96-well plate and later incubated at 25° C. for a duration determined by the experimental protocol. Resazurin (7-Hydroxy-31-phenoxazin-3-one 10-oxide; 5 mg/ml; McBride J et al (2005) J. Clin. Microbiol.; 43: 629-634) and trypan blue (0.4 μg/ml; Mafra C S P et al (2013) Investig. Ophthalmol. Vis. Si.; 54: 6363-6372) were then added to trophozoites and cysts respectively after being exposed to the compounds and the cell viability estimated microscopically and from changes in absorbance (at 595 nm and 570 nm) respectively.
Efficacy was expressed as a percentage of untreated controls for each drug concentration used and the data used to calculate the IC50. Cell density was estimated using the modified Neubaur hemocytometer and expressed as cells/ml.

[2] = tested on: A. castellanii trophozoites; assay: Drug wash-out / alamarBlue-reversion assay, trophozoites
A. castellanii cysts [3] = assay: Drug wash-out / alamarBlue-reversion assay, cysts; conditions: for Back transformation to trophozoites after drug wash-out: Cysts; for Back transformation to trophozoites after drug wash-out: key: +: indicates cells reverting back to trophozoites after washout; and capable of oxidizing reduced alamarBlue from blue to pink after 8 days; −: indicates cell that did not revert to trophozoites after wash-out and unable to oxidise reduced alamarBlue solution
Protocol: For the drug kinetic assay, viability was assessed by the linked alamarBlue-reversion assay. Drug-treated cysts were washed with PBS and fresh PG medium was added to allow reversion to trophozoites for 5 days, after which, alamar blue was added and viability estimated as described above.
The cysticidal activity of QAC16 to QAC18 strongly correlated with (a) the alkyl-carbon chain lengths (Table 2) and the duration of drug contact (FIG. 8H). Like trophozoites, death was via leakage judged by 40% and 50% increase in DNA and proteins in the external milieu after 1 h (FIGS. 9A and 9B). To investigate if the cyst were viable, a complementary viability assay that involved, drug washout, incubation in PG medium to allow reversion of viable cyst to trophozoite for 7 days, and estimation of viability using the oxidation of resazurin after 6 h.

[4] = tested on: A. castellanii trophozoites; assay: Morphometric analysis of trophozoites
Protocol: (§3) Acanthamoeba trophozoites ([…]) incubated without (FIG. 2A), with QAC18 at 37.5 μg/ml for 1 h at 25° C. (FIG. 2B), and 0.5% SDS for 30 min (FIG. 2C). QAC18 reduced trophozoites sizes from 29.02±0.23 (FIG. 2A) to 7.87 f 0.93 (FIG. 2B) which disintegrated after 30 min treatment with SDS (FIG. 2C).
A. castellanii trophozoites incubated with and without QAC for a duration determined by experimental protocol were examined microscopically and their sizes measured using the Open Laboratory (Improvision) calibration graticule. The mean body sizes were determined.

[5] = tested on: A. castellanii trophozoites; assay: Combined assay with fixed QAC12 (alamarBlue); conditions: Acanthamoeba castellanii, 96 h, 96 h at 25° C.
Protocol: Acanthamoeba trophozoites (10^5 cells/ml. n=5/treatment) treated with 100 μg/ml doubly diluted to 0.06 μg/ml of QAC18 (a,b) or APC16 (c,d) for 96 h at 25° C. […] Similarly. APC16 alone at the same concentration (closed circle, FIG. 6C, FIG. 6D) in combination with QAC12 at 18.75 μg/ml (open squares, d) QAC12 at […] (open squares, FIG. 6C). Data are mean absorbance at 595 nm t SD; n=4 independent experiments performed in triplicates. IC50s were not statistically significant between QAC12 at both concentrations and QAC16 (p>0.05, FIG. 6A, FIG. 6B) but significant with APC16 (p<0.05, FIG. 6C, FIG. 6D).
as §2

[6] = tested on: A. castellanii trophozoites; assay: SDS disintegration of QAC-treated trophozoites; conditions: QAC18-treated, 0.5% SDS for 30 min
Protocol: as §3, §1

With `CCCCCCCCCCCCCCCCCC[N+](C)(C)C.[Br-]` [QAC18, octadecyltrimethyl ammonium bromide] the IC50 (A. castellanii cysts [1]; Table 2, read-out: IC50 A. castellanii cysts) was 15 µg/mL and 38 µM, the IC50 (A. castellanii cysts [1]; after 96 h, trypan blue viability assay, read-out: Estimated IC50 against matured cysts) was 22 ± 0.04 µg/mL and the “Back transformation to trophozoites after drug wash-out” value (shortened to “Back transformation to trophozoites”) ([2]; 9.375 μg/ml, 1 h) was “+”. For the same molecule, the “Back transformation to trophozoites” value ([2]; 9.375 μg/ml, 24 h) was “−”, the “Back transformation to trophozoites” value ([2]; 9.375 μg/ml, 48 h) was “−” and the “Back transformation to trophozoites” value ([2]; 9.375 μg/ml, 72 h) was “−”. For the same molecule, the “Back transformation to trophozoites” value ([2]; 9.375 μg/ml, 96 h) was “−”, the “Back transformation to trophozoites” value ([2]; 18.75 μg/ml, 1 h) was “+” and the “Back transformation to trophozoites” value ([2]; 18.75 μg/ml, 24 h) was “−”. The “Back transformation to trophozoites” value ([2]; 18.75 μg/ml, 48 h) was “−”, the “Back transformation to trophozoites” value ([2]; 18.75 μg/ml, 72 h) was “−” and the “Back transformation to trophozoites” value ([2]; 18.75 μg/ml, 96 h) was “−”. For the same molecule, the “Back transformation to trophozoites” value ([2]; 37.50 μg/ml, 1 h) was “−”, the “Back transformation to trophozoites” value ([2]; 37.50 μg/ml, 24 h) was “−” and the “Back transformation to trophozoites” value ([2]; 37.50 μg/ml, 48 h) was “−”. The “Back transformation to trophozoites” value ([2]; 37.50 μg/ml, 72 h) was “−”, the “Back transformation to trophozoites” value ([2]; 37.50 μg/ml, 96 h) was “−” and the “Amoebotoxicity after wash-out and replacement with PG medium” value ([2]; after 24 h at 9.375 μg/ml) was “amoebotoxic”. The “Amoebotoxicity after wash-out and replacement with PG medium” value ([2]; from 1 h onwards at 37.5 μg/ml) was “amoebotoxic”, the “Resurgence of cysts after drug washout” value (A. castellanii cysts [3]; 18.75 μg/ml after 48 h) was “No resurgence” and the “Resurgence of cysts after drug washout” value (A. castellanii cysts [3]; 37.5 μg/ml after 24 h) was “No resurgence”. For the same molecule, the “Back transformation to trophozoites” value (A. castellanii cysts [3]; 9.375 μg/ml, 24 h) was “+”, the “Back transformation to trophozoites” value (A. castellanii cysts [3]; 9.375 μg/ml, 48 h) was “+” and the “Back transformation to trophozoites” value (A. castellanii cysts [3]; 9.375 μg/ml, 72 h) was “+”. For the same molecule, the “Back transformation to trophozoites” value (A. castellanii cysts [3]; 18.75 μg/ml, 24 h) was “+”, the “Back transformation to trophozoites” value (A. castellanii cysts [3]; 18.75 μg/ml, 48 h) was “+” and the “Back transformation to trophozoites” value (A. castellanii cysts [3]; 18.75 μg/ml, 72 h) was “+”. The “Back transformation to trophozoites” value (A. castellanii cysts [3]; 37.50 μg/ml, 24 h) was “−”, the “Back transformation to trophozoites” value (A. castellanii cysts [3]; 37.50 μg/ml, 48 h) was “−” and the “Back transformation to trophozoites” value (A. castellanii cysts [3]; 37.50 μg/ml, 72 h) was “−”. For the same molecule, the “Reduction in trophozoite size relative to untreated” value [4] was 4 fold, the “Trophozoite size after treatment” value ([4]; 37.5 μg/ml for 1 h at 25° C. (FIG. 2B)) was 7.87 and the “Trophozoite size after treatment” value ([4]; QAC18-treated trophozoites (FIG. 2B)) was 7.87±0.93 μm. The IC50 ([5]; QAC12 fixed at 18.75 μg/ml, read-out: Estimated IC50 of QAC18 in combination with QAC12) was 6.7 µg/mL, the IC50 ([5]; QAC12 fixed at 37.5 μg/ml, read-out: Estimated IC50 of QAC18 in combination with QAC12) was 6.9 µg/mL and the IC50 ([5]; without QAC12, read-out: Estimated IC50 of QAC18 alone) was 6.1 µg/mL. For the same molecule, the “Disintegration of shrunk treated trophozoites by 0.5% SDS” value [6] was 92%.

— patent US20230102836A1, “Amoebicidal Compositions for Contact Lens Solutions” (University of the West of Scotland, priority 2019, published 2023)
